# Reference: patent publication US8524898B2, “Proton acceptor iminium/carbocation-type coupling agents” (Luxembourg Bio Technologies Ltd., priority 2007, dated 2013)
# Where a name gives a salt, the structure may show the parent alone.
# Test: not given
# Settings: not given
row,Compound,melting point
1,CN(C)C(n1n[n+]([O-])c2ccc(Cl)cc21)=[N+]1CCCC1 (as salt: phosphate),192 to 193 °C
2,O=c1ccccn1OC(N1CCOCC1)=[N+]1CCCC1 (as salt: phosphate),145 to 146 °C (dec.)

# Second part, the compound after the results:
row,melting point,Compound
1,169 to 171 °C,CN(C)C(O/N=C(\C#N)c1ccccn1)=[N+](C)C (as salt: phosphate)
2,118 to 119 °C,"C[N+](C)=C(ON=C(C#N)C#N)N1CCOCC1 (as salt: phosphate) [HDMODC, 1-[(1-(dicyanomethyleneaminooxy)-dimethylamino-morpholinomethylene)]methanaminium hexafluorophosphate]"
3,126 to 127 °C (dec.),"CCOC(=O)C(C#N)=NOC(N(C)C)=[N+]1CCCC1 (as salt: phosphate) [HDmPyOCC, 1-[(1-(Cyano-2-ethoxy-2-oxoethylideneaminooxy)-dimethylamino-pyrrolodinomethylene)]methanaminium hexafluorophosphate]"
4,146 to 147 °C (dec.),"CN(C)C(ON=C(C#N)C#N)=[N+]1CCCC1 (as salt: phosphate) [HDmPyODC, 1-[(1-(dicyanomethylideneaminooxy)-dimethylamino-pyrrolodinomethylene)]methanaminium hexafluorophosphate]"
5,206 to 208 °C (dec.),"[O-][n+]1nn(C(N2CCCC2)N2CCOCC2)c2cccnc21 (centres unmarked) (as salt: phosphate) [HMPyA, 1-(morpholino(pyrrolidinium-1-ylidene)methyl)-1H-[1,2,3]triazolo[4,5-I]pyridine 3-oxide hexafluorophosphate]"
6,171 to 172 °C,"CCOC(=O)/C(C#N)=N/OC(N1CCOCC1)=[N+]1CCCC1 (as salt: phosphate) [HMPyOCC, 1-((1-cyano-2-ethoxy-2-oxoethylideneaminooxy)(morpholino)methylene) pyrrolidinium hexafluorophosphate]"
7,135 to 137 °C (dec.),"CCOC(=O)/C(C#N)=N/OC(N(C)C)N(C)C (as salt: phosphate) [HTOCC, O-[Cyano(ethoxycarbonyl)methylidene)amino]-1,1,3,3-tetramethyluronium Hexafluorophosphate]"

# Test: Maximal solubility of coupling agents in DMF
# Settings: calculated molarity in DMF
row,Compound,Molarity
1,"1-((dimethylimino)(morpholino)methyl)3-H-6-chlorobenzo[1,2,3]triazolo-1-ium-3-olate hexafluorophosphate [6-Cl-HDMB]",1.0
2,"1-((dimethylimino)(morpholino)methyl)3-H-6-trifluoromethylbenzo[1,2,3]-triazolo-1-ium-3-olate hexafluorophosphate [6-CF3HDMB]",1.02

# Same assay, conditions: maximal solubility; mass of agent per volume of DMF
row,Compound,Wt/ml
1,"1-((dimethylimino)(morpholino)methyl)3-H-6-chlorobenzo[1,2,3]triazolo-1-ium-3-olate hexafluorophosphate [6-Cl-HDMB]",0.456
2,"1-((dimethylimino)(morpholino)methyl)3-H-6-trifluoromethylbenzo[1,2,3]-triazolo-1-ium-3-olate hexafluorophosphate [6-CF3HDMB]",0.475
3,"1-((dimethylimino)(morpholino)methyl)3-H-[1,2,3]triazolo[4,5-b]pyridine-1-3-olate hexafluorophosphate [HDMA]",0.285
